Results from patent publication US20150201650A1, “DIETARY SUPPLEMENT” (Vetafarm Europe Ltd, priority 2009, published 2015).
Several values for one entry are separate records, joined by “and”; a condition that tells them apart may be missing. Equal values may be shown once. Entries after “also recorded” stand apart in the source; their conditions may differ.

Tested on: horses demonstrating agitated behaviour
Assay: Feeding trial of calcium supplements in horses demonstrating agitated behaviour, marked by the feeder
Format: in vivo, horse
Conditions: for average mark for horses: mean of the feeders' marks (1 bad, 5 good); for feeder's general comment on the horse's behaviour during the trial / mark provided by the feeder, based on the effect noted in the behaviour of the horse: single horse; for mark provided by the feeder, based on the effect noted in the behaviour of the horse: mark between 1 and 5 (bad is 1, good is 5)
Text: The horses were given doses of calcium chelate calculated to provide a loading dose of 12 grams of calcium per day for five days each week for a period of a month. In the calcium carbonate subject the feed dose was 24 or 48 grams of calcium per day. The feeder provided a mark between 1 and 5 where bad is 1 and good is 5. The mark allocated was based on the effect noted in the behaviour of the horse. The feeder also provided general comments on the horses' behaviour during the trial.

[1] = 12 grams of calcium per day, five days each week for a month
[2] = loading dose of 12 grams of calcium per day, five days each week for a month, supplement of the calcium chelate only
[3] = 60 grams of calcium carbonate only
[4] = 120 grams of calcium carbonate only

Molecule	average mark for horses [1]	feeder's general comment on the horse's behaviour during the trial [1]	mark provided by the feeder, based on the effect noted in the behaviour of the horse [2]	average mark for horses (feed dose 24 or 48 grams of calcium per day as calcium carbonate)	feeder's general comment on the horse's behaviour during the trial [3]	feeder's general comment on the horse's behaviour during the trial [4]	mark provided by the feeder, based on the effect noted in the behaviour of the horse [3]	mark provided by the feeder, based on the effect noted in the behaviour of the horse [4]
calcium gluconate	3.33	calmed down without losing any energy; also recorded: did not notice a difference in the horses' behaviour for the first couple of weeks; also recorded: within two weeks the horse was completely calm	4.5 and 2.5 and 3	–	–	–	–	–
O=C([O-])CC(O)(CC(=O)[O-])C(=O)[O-].O=C([O-])CC(O)(CC(=O)[O-])C(=O)[O-].[Ca+2].[Ca+2].[Ca+2] [calcium citrate]	4.6	a lot calmer and rational; also recorded: much calmer and friendlier; also recorded: very good response; also recorded: much calmer generally	4.5 and 4 and 5	–	–	–	–	–
O=C([O-])[O-].[Ca+2] [calcium carbonate, reference compound]	–	–	–	1.67	not much difference in the behaviour; also recorded: No significant change	small improvement in the horse's behaviour but not sufficient for the horse to be ridden	1.5 and 1	2.5
